Measured values taken from PubChem BioAssay AID256 (DTP/NCI, 2004).
“And” between values parts separate entries of the source, which are not always exact repeats. Equal values may be shown once. Inconclusive results and toxic doses are left out. How the source made its calls: active means survival T/C of 150% or more; inactive means T/C below 125% in these data.

Test system: CD2F1 mice, L1210 leukemia ip, survival T/C
Test: NCI In Vivo Anticancer Drug Screen. Data for tumor model L1210 Leukemia (intraperitoneal) in CD2F1 (CDF1) mice
Details: endpoint: mean survival time, higher = longer survival
Outline: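 Mice carrying a transplanted tumor received test compound or vehicle alone. The value is the measurement in the treated group divided by that in the vehicle-treated control group.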

Measured: T/C

COC(=O)c1ccccc1I
inactive: dose: 100.0 mg/kg/injection, schedule: Q04DX002 (ip), vehicle: saline with Tween-80 107 % of control | dose: 200.0 mg/kg/injection, schedule: Q04DX002 (ip), vehicle: saline with Tween-80 96 % of control | dose: 400.0 mg/kg/injection, schedule: Q04DX002 (ip), vehicle: saline with Tween-80 107 % of control

Cc1cc(N(CCOS(C)(=O)=O)CCOS(C)(=O)=O)ccc1N=Nc1ccccc1
inactive: dose: 3.12 mg/kg/injection, schedule: Q01DX009 (ip), vehicle: Klucel (hydroxypropylcellulose) (HPC) 106 % of control | dose: 6.25 mg/kg/injection, schedule: Q01DX009 (ip), vehicle: Klucel (hydroxypropylcellulose) (HPC) 113 % of control | dose: 12.5 mg/kg/injection, schedule: Q01DX009 (ip), vehicle: Klucel (hydroxypropylcellulose) (HPC) 114 % of control and 124 % of control | dose: 25.0 mg/kg/injection, schedule: Q01DX009 (ip), vehicle: Klucel (hydroxypropylcellulose) (HPC) 101 % of control | dose: 50.0 mg/kg/injection, schedule: Q01DX009 (ip), vehicle: Klucel (hydroxypropylcellulose) (HPC) 95 % of control

CN1CCCC1CCNc1nc(-c2ccc(C(Cl)(Cl)Cl)cc2)nc(C(Cl)(Cl)Cl)n1 (stereo not drawn)
inactive: dose: 100.0 mg/kg/injection, schedule: Q01DX001 (ip), vehicle: saline with Tween-80 95 % of control | dose: 100.0 mg/kg/injection, schedule: Q01DX009 (ip), vehicle: saline with Tween-80 95 % of control | dose: 200.0 mg/kg/injection, schedule: Q01DX001 (ip), vehicle: saline with Tween-80 95 % of control | dose: 400.0 mg/kg/injection, schedule: Q01DX001 (ip), vehicle: saline with Tween-80 94 % of control

CCCCN=C=C(c1ccccc1)c1ccccc1
inactive: dose: 25.0 mg/kg/injection, schedule: Q04DX002 (ip), vehicle: other 97 % of control | dose: 50.0 mg/kg/injection, schedule: Q04DX002 (ip), vehicle: other 86 % of control | dose: 100.0 mg/kg/injection, schedule: Q04DX002 (ip), vehicle: other 89 % of control

CCCC(=O)c1cc(O)c(O)cc1O
inactive: dose: 12.5 mg/kg/injection, schedule: Q01DX009 (ip), vehicle: saline with Tween-80 111 % of control | dose: 25.0 mg/kg/injection, schedule: Q01DX009 (ip), vehicle: saline with Tween-80 93 % of control | dose: 50.0 mg/kg/injection, schedule: Q01DX009 (ip), vehicle: saline with Tween-80 97 % of control
